The values below come from US7169785B2, “Methods and compositions of novel triazine compounds” (Reddy US Therapeutics, Inc., priority 2001, dated 2007).

Structures are written as SMILES. pIC50: −log10 of the molar value. Read-outs that look alike come from different tables or passages of the source.

One series deals with cells. Put plainly: Cytotoxicity / lactate dehydrogenase assay and visual observation of cells. It is filed as cell-based. On the procedure:
Assays for determining the activity of compounds capable of cytotoxic activity include those taught in herein and others that are well known in the art. In general, to determine if there is cytotoxic activity associated with a compound, cells of a particular type, in a growing stage or a quiescient stage, are treated with the compound of interest. Various parameters of cell death or cessation are used to measure the effects of the compound. For example, the amount of nucleic acid or protein synthesis can be measured or visual observation of the state of the cells, such as release from the substrate, can be used to measure the state of the cells.
An appropriate number of cells are plated in four 96-well plates, one plate for “day 0” and three plates for days 1–3. Cells are treated with at least one compound of the present invention in varying concentrations with and without the apoptosis inducer cisplatin (2 μM) (“+cis” or “−cis”). Unteated cells are also assayed with and without cisplatin. After transfection, the plates are incubated at 37° C. overnight.
An appropriate number of cells are plated in four 96-well plates, one plate for “day 0” and three plates for days 1–3. Cells are treated with at least one compound of the present invention in varying concentrations. The negative control cells have normal media conditions, a duplicate set of wells is treated with the composition in which the compound is provided, but there is no added compound and the positive control cells are treated with the apoptosis inducer cisplatin (2 μM). All of the cells are transfected with a vector having a promoter that is responsive to apoptosis conditions. When apoptosis occurs, the promoter is turned on and the lactic dehydrogenase gene is activated and the enzyme protein is made and active. Activity is easily detected with a color change. After transfection, the plates are incubated at 37° C. overnight.
About 8 mls of warmed alpha MEM LDH lysis buffer (2% Triton X100) and about 8 mls of culture media (½ dilution) are combined. Two 96-well v-bottom plates are prepared, one labeled “lysis” and one labeled “supernatant.” To lyse the cells, about 200 μl Alpha MEM lysis buffer (diluted ½) is added to one test plate from which the supernatant has been removed and added to the plate labeled supernatant. After mixing, about 200 μl of lysed cells are transferred to the lysis plate. Both the lysis and supernatant plates are centrifuged at about 1600 rpm for about 10 min. After centrifugation, about 100 μl of both the supernatant or lysate is transferred to corresponding 96-well flat-bottomed plates.
The assay for cytotoxicity uses the Cytotoxicity Detection Kit (LDH) from Roche Diagnostics Corp. (Indianapolis, Ind.). Using the directionts provided, the dye solution is mixed and added each well of the lysate and supernatant plate and incubated for up to 20–25 min at 15–25° C. in the dark.

In series [1] the test system is IL-6. The series is described as follows: TNF-α-induced IL-6 production determined by IL-6 ELISA in HAEC. The class given is cell-based, human. Conditions: HAEC; for Inhibition of TNF-induced IL6 production: class of % of control IL6 production; for activity at 10 µM: 24 h, Compds tested @ 10 uM, read-out: % IL6 production compare to TNF stimulation of IL6 (100%). Background: In an ELISA, binding on a coated surface is turned into a signal by an enzyme label.

Series [2] has as its system Human aortic smooth muscle cells. The series is described as follows: Smooth muscle cell proliferation assay (anti-proliferation assay, perlecan). It is filed as cell-based.
Series [3] concerns IL-6. Put plainly: AGE (G-HSA)-induced inflammatory response determined by IL-6 ELISA in HAEC. Conditions: Homo sapiens. It is filed as cell-based, human. Here is the method:
Human aortic endothelial cells (HAEC, Clonetics) were cultured according to manufacturer in growth medium (Clonetics): basal medium containing human epidermal growth factor, hydrocortisone, vascular endothelial growth factor, heparin binding growth factor-B, long R3-insulin-like growth factor-1, ascorbic acid, gentamicin/amphotericin and 5% FBS. These cell were allowed to reach at least 90% confluency before subjected to experimental treatments. […] Tumor necrosis factor α was from R&D Systems.
All treatments, compound-added and controls were carried out in serum free media containing 0.2% albumin. Media from all conditions were collected and used for IL-6 ELISA.
IL-6 ELISA was carried out using human IL-6 DuoSet ELISA development kit as described by manufacturer (R&D Systems). Mouse anti-human Il-6 was used as the capture antibody (2 ug/ml) and biotinylated goat anti-human IL-6 (200 ng/ml) was used as the detection antibody. Culture media were incubated with capture antibody (in 96 well) for 2 h at room temperature. Wells were washed three times with wash buffer (0.05% tween-20 in phosphate buffered saline (PBS) pH 7.4) followed by incubation with detection antibody for 2 h at room temperature. Following three washes wells were incubated with Streptavidin-HRP for 20 min. Color development was read at 450 nm in a Microplate reader.

Setting [4] is: Homo sapiens, read-out: Activity (note 1).
The mark [5] stands for this setting: Homo sapiens, read-out: Avg IC-50.
[6] abbreviates: Homo sapiens, anti-proliferation assay (perlecan), read-out: Activity (note 1).
Where [7] appears, read: Homo sapiens, anti-proliferation assay (perlecan), read-out: Avg IC-50.

Regarding `CCN1CCCC1CNc1nc(NC2CCCCCC2)nc(N(C)c2ccc(OC(F)(F)F)cc2)n1` (centres unmarked) [Compound 47, N^2-cycloheptyl-N^4-[(1-ethyl-2-pyrrolidinyl)methyl]-N^6-methyl-N^6-[4-(trifluoromethoxy)phenyl]-1,3,5-triazine-2,4,6-triamine], in the series with cells (toxic or cause cell death), the Toxicity result was “toxic”.
For `CCN1CCCC1CNc1nc(Nc2ccc(Cl)c(Cl)c2)nc(NC2CCCCCC2)n1` (centres unmarked) [Compound 7, N^2-cycloheptyl-N^4-(3,4-dichlorophenyl)-N^6-[(1-ethyl-2-pyrrolidinyl)methyl]-1,3,5-triazine-2,4,6-triamine], in the series with cells (toxic or cause cell death), the Toxicity result is on record as “toxic”.
As to `CCN1CCC[C@@H]1CNc1nc(Nc2ccc(OC)c(F)c2)nc(NC2CCCCCC2)n1` [Compound 140, N^2-cycloheptyl-N^4-((R)-1-ethyl-pyrrolidin-2-ylmethyl)-N^6-(3-fluoro-4-methoxyphenyl)-1,3,5-triazine-2,4,6-triamine], the “Inhibition of TNF-induced IL6 production” value in the series with IL-6 [1] was “++++ (between 0 and about 25% of IL6 production compared to cells that did not receive compound (or per cent of control IL6 production))”. Further, the activity at 10 µM in the series with IL-6 [1] (Homo sapiens, IL6) is 12.6%. Besides, the pIC50 is 5.15 to 5.52 in series [2] (setting [4]) and 5.30 to 5.40 in series [2] (setting [5]).
On to `CCN1CCCC1CNc1nc(Nc2ccc(Cl)cc2)nc(NC2CCCCCC2)n1` (centres unmarked) [Compound 12, N^2-(4-chlorophenyl)-N^4-cycloheptyl-N^6-[(1-ethyl-2-pyrrolidinyl)methyl]-1,3,5-triazine-2,4,6-triamine], for which the Toxicity result in the series on cells (toxic or cause cell death) is given as “toxic”.
Regarding `CCN1CCCC1CNc1nc(Nc2ccc(OC)c(Cl)c2)nc(NC2CCCCCC2)n1` (centres unmarked) [Compound 136, N^2-(3-chloro-4-methoxy-phenyl)-N^4-cycloheptyl-N^6-(1-ethyl-pyrrolidin-2-ylmethyl)-1,3,5-triazine-2,4,6-triamine], the Toxicity result in the series with cells (at 3 uM, very toxic) is reported as “Nothing but celldebris at 3 uM verytoxic”.
`COc1ccc(Nc2nc(NC3CC3)nc(N(C)C3CCN(C)CC3)n2)cc1Cl`: the “cell death under Inflammation Data” value with cells (10 uM) came out at 15%.
As to `COc1ccc(Nc2nc(OCC3CCCCC3)nc(N(C)C3CCN(C)CC3)n2)cc1Cl` [Compound 119, N-(3-Chloro-4-methoxy-phenyl)-6-cyclohexylmethoxy-N′-methyl-N′-(1-methyl-piperidin-4-yl)-[1,3,5]triazine-2,4-diamine], the Toxicity result in the series with cells is “toxic”.
Regarding `CCN1CCCC1CNc1nc(Nc2ccccc2Cl)nc(NC2CCCCCC2)n1` (centres unmarked) [Compound 21, N^2-(2-chlorophenyl)-N^4-cycloheptyl-N^6-[(1-ethyl-2-pyrrolidinyl)methyl]-1,3,5-triazine-2,4,6-triamine], the Toxicity result in the series on cells (toxic or cause cell death) is reported as “toxic”.
The same measure, in the same setting: the result for `CCN1CCCC1CNc1nc(Nc2ccccc2Br)nc(NC2CCCCCC2)n1` (centres unmarked) [Compound 22, N^2-(2-bromophenyl)-N^4-cycloheptyl-N^6-[(1-ethyl-2-pyrrolidinyl)methyl]-1,3,5-triazine-2,4,6-triamine] reads “toxic”.
As to `CCN1CCCC1CNc1nc(Nc2ccc(OC)c(F)c2)nc(NC2CCCCCC2)n1` (centres unmarked) [Compound 95, N^2-cycloheptyl-N^4-[(1-ethyl-2-pyrrolidinyl)methyl]-N^6-(3-fluoro-4-methoxyphenyl)-1,3,5-triazine-2,4,6-triamine], the activity at 10 µM was 1% with IL-6 [3] (24 h, Compds tested @ 10 uM, IL6, read-out: % IL6 production compare to AGE stimulation of IL6 (100%)) and 5% in the series on IL-6 [1] (Homo sapiens, IL6). Further, the pIC50 in the series with IL-6 [3] (IL6, unit inferred, read-out: IC50 (AGE stimulation of IL6)) is 5.18; with IL-6 [1] (Homo sapiens, IL6, unit inferred, read-out: IC50 (TNF stimulation of IL6)) it was 5.55; in series [2] (setting [6]) it was under 5.15; in series [2] (setting [7]), 5.14. For the same molecule, the “Inhibition of TNF-induced IL6 production” value in the series with IL-6 [1] was “++++ (between 0 and about 25% of IL6 production compared to cells that did not receive compound (or per cent of control IL6 production))”.
Regarding `COc1ccc(Nc2nc(Cl)nc(NC3CCCCCC3)n2)cc1F` [Compound 127, 6-Chloro-N-cycloheheptyl-N′-(3-fluoro-4-methoxy-phenyl)-[1,3,5]triazine-2,4-diamine], the activity at 10 µM in the series on IL-6 [1] (Homo sapiens, IL6) was found to be 48%. Also, the pIC50 is under 5.15 in series [2] (setting [6]) and 5.00 in series [2] (setting [7]).
With `CCN1CCC[C@H]1CNc1nc(Nc2ccc(OC)c(F)c2)nc(NC2CCCCCC2)n1` [Compound 139, N^2-cycloheptyl-N^4-((S)-1-ethyl-pyrrolidin-2-ylmethyl)-N^6-(3-fluoro-4-methoxyphenyl)-1,3,5-triazine-2,4,6-triamine], in the series with IL-6 [1], the “Inhibition of TNF-induced IL6 production” value was “++++ (between 0 and about 25% of IL6 production compared to cells that did not receive compound (or per cent of control IL6 production))”. Also, the activity at 10 µM in the series with IL-6 [1] (Homo sapiens, IL6) turned out to be 16.1%. The pIC50 in series [2] (setting [4]) is 5.15 to 5.52; in series [2] (setting [5]) it was 5.30 to 5.40.
Regarding `CCN1CCCC1CNc1nc(Nc2ccc(OC(F)(F)F)cc2)nc(NC2CCCCCC2)n1` (centres unmarked) [Compound 9, N^2-cycloheptyl-N^4-[(1-ethyl-2-pyrrolidinyl)methyl]-N^6-[4-(trifluoromethoxy)phenyl]-1,3,5-triazine-2,4,6-triamine], the Toxicity entry with cells (toxic or cause cell death) is “toxic”.
Same read-out and setting: for `CCOC(=O)c1ccc(Nc2nc(NCC3CCCN3CC)nc(NC3CCCCCC3)n2)cc1` (centres unmarked) [Compound 14, Ethyl 4-[(4-(cycloheptylamino)-6-{[(1-ethyl-2-pyrrolidinyl)methyl]amino}-1,3,5-triazin-2-yl)-amino]benzoate] the value was “toxic”; for `CCN1CCCC1CNc1nc(Nc2cccc(F)c2)nc(NC2CCCCCC2)n1` (centres unmarked) [Compound 16, N^2-cycloheptyl-N^4-[(1-ethyl-2-pyrrolidinyl)methyl]-N^6-(3-fluorophenyl)-1,3,5-triazine-2,4,6-triamine], “toxic”; for `CCN1CCCC1CNc1nc(Nc2ccc(Br)cc2)nc(NC2CCCCCC2)n1` (centres unmarked) [Compound 13, N^2-(4-bromophenyl)-N^4-cycloheptyl-N^6-[(1-ethyl-2-pyrrolidinyl)methyl]-1,3,5-triazine-2,4,6-triamine], “toxic”.
On the same count and under the same terms, for `CCN1CCCC1CNc1nc(Nc2ccc(OC)c(F)c2)nc(NC2CCCCCCC2)n1` (centres unmarked) [Compound 54, N^2-cyclooctyl-N^4-[(1-ethyl-2-pyrrolidinyl)methyl]-N^6-(3-fluoro-4-methoxyphenyl)-1,3,5-triazine-2,4,6-triamine] the value was “toxic”; for `CCN1CCCC1CNc1nc(Nc2ccc(OC)c(F)c2)nc(N2CCCC3CCCCC32)n1` (centres unmarked) [Compound 59, N^2-[(1-ethyl-2-pyrrolidinyl)methyl]-N^4-(3-fluoro-4-methoxyphenyl)-N^6-octahydro-1(2H)-quinolinyl-1,3,5-triazine-2,4-diamine], “toxic”.
In the case of `CN1CCC(N(C)c2nc(Nc3ccc4ccccc4c3)nc(NC3CCCCCC3)n2)CC1` [N^2-cycloheptyl-N^4-methyl-N^4-(1-methyl-piperidin-4-yl)-N^6-naphthalen-2-yl-1,3,5-triazine-2,4,6-triamine], the “activity in anti-proliferation assay (Perlecan)” value in series [2] (same activity scale used in Table 3, in words) is listed as “high activity”.
Turning to `CCN(CC)c1ccc(Nc2nc(NCC3CCCN3CC)nc(NC3CCCCCC3)n2)cc1Cl` (centres unmarked) [Compound 163], the pIC50 in series [2] (anti-proliferation assay (perlecan), read-out: Activity (note 1)) is under 5.15; in series [2] (anti-proliferation assay (perlecan), read-out: Avg IC-50) it was 5.00 to 5.10.
